Laboratory results reported in patent US9750724B2, “Use of an aromatase inhibitor for the treatment of hypogonadism and related diseases” (Mereo BioPharma 2 Limited, priority 2011, dated 2017).
Where two headings read alike, the source gives them in different places.

How the values were obtained:
[1] = Single ascending dose study in pre- and post-menopausal women, pharmacokinetics; assay type: in vivo, human; conditions: female, human, in vivo, 2.5 mg
Source text: The drug concentration in plasma and/or serum samples can be determined by a number of different ways, e.g. HPLC or LC-MS/MS analyses. […]
A minimal toxic dose (MTD) was not reached. […] Table 3 presents the PK parameters based on preliminary analysis of the concentration-time profile obtained from this study.

[2] = tested on: serum testosterone, estradiol, LH and FSH; conditions: 2.5 mg weekly, cited from earlier work; for free testosterone: fixed dosing interval

- Tmax [1]: 1 h
- AUC(0-t) ([1]; AUC (0-tlast) Mean): 1670 ng·h/mL
- Cmax ([1]; Cmax Mean): 33.5 ng/mL
- half-life ([1]; T1/2 Mean): 2.9 days
SMILES: N#Cc1ccc(C(c2ccc(C#N)cc2)n2cncn2)cc1 [Letrozole, letrozole]
- LH and FSH ([2]; 12 OHH men): increased LH and FSH
- total estradiol ([2]; 12 OHH men): suppressed total estradiol
- total testosterone ([2]; 12 OHH men, de Boer 2005, Loves 2008): increased total testosterone into the normal range
- free testosterone [2]: rose above the normal range in approximately half of the subjects
- free testosterone ([2]; listed as letrozole): excessive free testosterone levels in approximately half the subjects
